In ChEMBL document CHEMBL1157896, “A repurposing strategy identifies novel synergistic inhibitors of Plasmodium falciparum heat shock protein 90” (J Med Chem, 2010):
Active and inactive are the calls of the source. No cut-off for these calls is given here.

Tests used:
Plasmodium falciparum [1] = assay: Displacement of bis-ANS from Plasmodium falciparum 3D7 Hsp90 expressed in Escherichia coli BL21(DE3) assessed as reduction in fluorescence at 100 uM after 30 min by fluorescent monochromator spectrophotometry; type: functional; set-up: scale not given: the % may be the effect or the level left
Plasmodium falciparum [2] = assay: Antimalarial activity against multidrug-resistant Plasmodium falciparum isolate 208432 infected in human erythrocytes after 48 hrs by flow-cytometry; type: functional, organism-based; settings: isolate 208432, 48 h
Plasmodium falciparum [3] = assay: Antimalarial activity against chloroquine-resistant Plasmodium falciparum W2 infected in human erythrocytes after 48 hrs by flow-cytometry; type: functional, organism-based; settings: W2, 48 h
[4] = molecular target: Heat shock protein HSP90 (Homo sapiens) (UniProt P07900+P08238); assay: Displacement of bis-ANS from human Hsp90 assessed as reduction in fluorescence at 100 uM after 30 mins by fluorescent monochromator spectrophotometry; type: protein assay
Plasmodium falciparum [5] = assay: Antimalarial activity against Plasmodium falciparum 3D7 infected in human erythrocytes after 48 hrs by flow-cytometry; type: functional, organism-based; settings: 3D7, 48 h

Row | Compound | Activity (Plasmodium falciparum [1]) [%] | IC50 (Plasmodium falciparum [2]) [nM] | IC50 (Plasmodium falciparum [3]) [nM] | Activity [4] | IC50 (Plasmodium falciparum [5]) [nM]
1 | NC(CP(=O)(O)O)C(=O)O (racemic) | > 70 | 47.1 | 84.4 | inactive | 60.3
2 | OC(c1cc(C(F)(F)F)nc2c(C(F)(F)F)cccc12)C1CCCCN1 (stereo not given) [MEFLOQUINE] | – | – | 3.2 | – | 2.1
3 | C[C@@H]1CC[C@H]2[C@@H](C)C(=O)O[C@@H]3O[C@@]4(C)CC[C@@H]1[C@]32OO4 [ARTEMISININ] | – | 68.3 | 7.3 | – | 6.1
4 | COc1ccc2c(c1)[nH]c1c(C)nccc12 [HARMINE] | > 70 | 182 | 28 | inactive | 50.1
